Test results reported in patent US9469650B2, “Melampomagnolide B derivatives” (BOARD OF TRUSTEES OF THE UNIVERSITY OF ARKANSAS, priority 2013, dated 2016).

Legend:
[1] = system: OVCAR-5; assay: panel of 60 human tumor cell lines, growth inhibition (Ovarian Cancer)
[2] = system: HCC-2998; assay: panel of 60 human tumor cell lines, growth inhibition (Colon Cancer); settings: for Percent Growth: HCC-2998
[3] = system: IGROV1; assay: panel of 60 human tumor cell lines, growth inhibition (Ovarian Cancer); settings: for Percent Growth: IGROVI
[4] = system: NCI-H522; assay: panel of 60 human tumor cell lines, growth inhibition (Non-Small Cell Lung Cancer)
[5] = system: UACC-257; assay: panel of 60 human tumor cell lines, growth inhibition (Melanoma)
[6] = system: A549/ATCC; assay: panel of 60 human tumor cell lines, growth inhibition (Non-Small Cell Lung Cancer); settings: for Percent Growth: A549/ATCC
[7] = system: SNB-19; assay: panel of 60 human tumor cell lines, growth inhibition (CNS Cancer)
[8] = system: CAKI-1; assay: panel of 60 human tumor cell lines, growth inhibition (Renal Cancer)
[9] = system: A498; assay: as above
[10] = system: LOX IMVI; assay: panel of 60 human tumor cell lines, growth inhibition (Melanoma); settings: Homo sapiens

C=C1C(=O)O[C@H]2[C@H]1CC/C(COC(=O)NCCc1ccccn1)=C\CC[C@@]1(C)O[C@@H]21 [JVM 61, ((1aR,7aS,10aS,10bS,E)-1a-methyl-8-methylene-9-oxo-1a,2,3,6,7,7a,8,9,10a,10b-decahydrooxireno[2′,3′:9,10]cyclodeca[1,2-b]furan-5-yl)methyl-(2-(pyridin-2-yl)ethyl)carbamate]
GI50 ([1]; Homo sapiens, OVCAR-5): 10.2 µM
CC50 ([1]; Homo sapiens, OVCAR-5, read-out: LC50): 49.5 µM
IC (TGI) ([1]; Homo sapiens, OVCAR-5, read-out: TGI): 22.5 µM
Percent Growth ([1]; OVCAR-5, Log10 Concentration −4.0): −94%
Percent Growth ([1]; OVCAR-5, Log10 Concentration −5.0): 51%
Percent Growth ([1]; OVCAR-5, Log10 Concentration −6.0): 96%
Percent Growth ([1]; OVCAR-5, Log10 Concentration −7.0): 97%
Percent Growth ([1]; OVCAR-5, Log10 Concentration −8.0): 107%
Percent Growth ([2]; Log10 Concentration −4.0): −86%
Percent Growth ([2]; Log10 Concentration −5.0): 87%
Percent Growth ([2]; Log10 Concentration −6.0): 100%
Percent Growth ([2]; Log10 Concentration −7.0): 103%
Percent Growth ([2]; Log10 Concentration −8.0): 101%
GI50 ([2]; Homo sapiens, HCC 2998): 16.3 µM
CC50 ([2]; Homo sapiens, HCC 2998, read-out: LC50): 62.1 µM
IC (TGI) ([2]; Homo sapiens, HCC 2998, read-out: TGI): 31.8 µM
GI50 ([3]; Homo sapiens, IGROV-1): 14.4 µM
CC50 ([3]; Homo sapiens, IGROV-1, read-out: LC50): 78.9 µM
IC (TGI) ([3]; Homo sapiens, IGROV-1, read-out: TGI): 33.8 µM
Percent Growth ([3]; Log10 Concentration −4.0): −64%
Percent Growth ([3]; Log10 Concentration −5.0): 72%
Percent Growth ([3]; Log10 Concentration −6.0): 102%
Percent Growth ([3]; Log10 Concentration −7.0): 104%
Percent Growth ([3]; Log10 Concentration −8.0): 106%
GI50 ([4]; Homo sapiens, NCI-H522): 1.64 µM
CC50 ([4]; Homo sapiens, NCI-H522, read-out: LC50): 9.29 µM
IC (TGI) ([4]; Homo sapiens, NCI-H522, read-out: TGI): 3.9 µM
Percent Growth ([4]; NCI-H522, Log10 Concentration −4.0): −69%
Percent Growth ([4]; NCI-H522, Log10 Concentration −5.0): −54%
Percent Growth ([4]; NCI-H522, Log10 Concentration −6.0): 76%
Percent Growth ([4]; NCI-H522, Log10 Concentration −7.0): 96%
Percent Growth ([4]; NCI-H522, Log10 Concentration −8.0): 95%
GI50 ([5]; Homo sapiens, UACC-257): 4.59 µM
CC50 ([5]; Homo sapiens, UACC-257, read-out: LC50): 53.7 µM
TGI ([5]; UACC-257): 1.95E−5
Percent Growth ([5]; UACC-257, Log10 Concentration −4.0): −81%
Percent Growth ([5]; UACC-257, Log10 Concentration −5.0): 33%
Percent Growth ([5]; UACC-257, Log10 Concentration −6.0): 83%
Percent Growth ([5]; UACC-257, Log10 Concentration −7.0): 92%
Percent Growth ([5]; UACC-257, Log10 Concentration −8.0): 97%
Percent Growth ([6]; Log10 Concentration −4.0): −54%
Percent Growth ([6]; Log10 Concentration −5.0): 64%
Percent Growth ([6]; Log10 Concentration −6.0): 6.7%
Percent Growth ([6]; Log10 Concentration −8.0): 95%
GI50 ([6]; Homo sapiens, A549): 13.1 µM
CC50 ([6]; Homo sapiens, A549, read-out: LC50): 92 µM
IC (TGI) ([6]; Homo sapiens, A549, read-out: TGI): 34.7 µM
GI50 ([7]; Homo sapiens, SNB-19): 27.7 µM
CC50 ([7]; Homo sapiens, SNB-19, read-out: LC50): > 100 µM
IC (TGI) ([7]; Homo sapiens, SNB-19, read-out: TGI): 160 µM
Percent Growth ([7]; SNB-19, Log10 Concentration −4.0): 3%
Percent Growth ([7]; SNB-19, Log10 Concentration −5.0): 88%
Percent Growth ([7]; SNB-19, Log10 Concentration −6.0): 94%
Percent Growth ([7]; SNB-19, Log10 Concentration −7.0): 93%
Percent Growth ([7]; SNB-19, Log10 Concentration −8.0): 97%
Percent Growth ([8]; CAKI-1, Log10 Concentration −4.0): −83%
Percent Growth ([8]; CAKI-1, Log10 Concentration −5.0): 6%
Percent Growth ([8]; CAKI-1, Log10 Concentration −6.0): 88%
Percent Growth ([8]; CAKI-1, Log10 Concentration −7.0): 93%
Percent Growth ([8]; CAKI-1, Log10 Concentration −8.0): 99%
GI50 ([8]; Homo sapiens, CAKI-1): 2.88 µM
CC50 ([8]; Homo sapiens, CAKI-1, read-out: LC50): 42.8 µM
IC (TGI) ([8]; Homo sapiens, CAKI-1, read-out: TGI): 11.7 µM
Percent Growth ([9]; A498, Log10 Concentration −4.0): −97%
Percent Growth ([9]; A498, Log10 Concentration −5.0): 55%
Percent Growth ([9]; A498, Log10 Concentration −6.0): 87%
Percent Growth ([9]; A498, Log10 Concentration −8.0): 87%
GI50 ([9]; Homo sapiens, A498): 16.8 µM
CC50 ([9]; Homo sapiens, A498, read-out: LC50): 49.1 µM
IC (TGI) ([9]; Homo sapiens, A498, read-out: TGI): 25.1 µM
GI50 [10]: 4.96 µM
GI50 ([10]; 5-dose assay): 4.96 µM
